In US7477053B2, “Detection of electromagnetic fields” (priority 1994, dated 2009):
“Also recorded” adds a separate entry of the source.

Legend:
rat liver Microsomes = assay: Magnetometer detection of substrate metabolism by rat liver microsomes; conditions: for Magnetometer chart response to substrate, RLM / Magnetometer chart response to substrate, RLM + NADPH: rat liver microsomes 1 mg protein/ml; for Magnetometer chart response to substrate, RLM: no NADPH stated; for Magnetometer chart response to substrate, RLM + NADPH: NADPH present
pig liver chromatin = assay: Magnetometer detection of substrate metabolism by pig liver chromatin
pig liver nuclei = assay: Magnetometer detection of substrate response in pig liver nuclei; format: in vitro ADME; conditions: pig liver nuclei 1 mg protein/ml, without NADPH

| SMILES | Metabolized by rat liver Microsomes (rat liver Microsomes; Non-NADPH-dependent) | Metabolized by pig liver chromatin (pig liver chromatin; NADPH-dependent) | Metabolized by rat liver Microsomes (rat liver Microsomes; NADPH-dependent) | also measured |
| --- | --- | --- | --- | --- |
| Nc1ncnc2c1ncn2[C@@H]1O[C@H](CO)[C@@H](O)[C@H]1O [adenosine] | + |  |  | Magnetometer chart response to substrate, RLM (rat liver Microsomes): No further change in slope |
| Cc1c(N(C)C)c(=O)n(-c2ccccc2)n1C [aminopyrine] |  | − | + |  |
| CN(C)CCC=C1c2ccccc2CCc2ccccc21 [amitryptyline] |  | + | + |  |
| Nc1ccccc1 [aniline] |  | − | + |  |
| C[C@]12CCC(=O)C=C1CC[C@@H]1[C@@H]2[C@@H](O)C[C@@]2(C)[C@H]1CC[C@]2(O)C(=O)CO [cortisol] |  | − | + |  |
| C[C@]12CC[C@@H]3c4ccc(O)cc4CC[C@H]3[C@@H]1CC[C@@H]2O [estridiol, β-estradiol] |  | − |  |  |
| CNCCC(Oc1ccc(C(F)(F)F)cc1)c1ccccc1 (stereo not shown) [fluoxetine] |  |  | + |  |
| NCCc1c[nH]cn1 [histamine] | + |  |  | Metabolized by pig liver chromatin (pig liver chromatin; Non-NADPH-dependent): + |
| N[C@@H](Cc1c[nH]cn1)C(=O)O [histidine] | + |  |  | Magnetometer chart response to substrate, PLN (pig liver nuclei): PLN. Response to HD.; Metabolized by pig liver chromatin (pig liver chromatin; Non-NADPH-dependent): ++; Magnetometer chart response to substrate, CHROM (pig liver chromatin; chromatin from pig liver nuclei 1 mg protein/ml, without NADPH, listed as HD): PBT (50) B 10 CHROM Response to HD; also recorded: PGT 100 CHROM (700) B. Response to HD; Magnetometer chart response to substrate, RLM + NADPH (rat liver Microsomes): RLM + NADPH. Two response to HD, short latency in both.; Magnetometer chart response to substrate, RLM (rat liver Microsomes): Enhanced slope |
| N[C@H](CO)Cc1c[nH]cn1 [histidinol] | + |  |  | Metabolized by pig liver chromatin (pig liver chromatin; Non-NADPH-dependent): + |
| CC(=O)[C@H]1CC[C@H]2[C@@H]3CCC4=CC(=O)CC[C@]4(C)[C@H]3CC[C@]12C [progresterone, progesterone] |  |  | + |  |
| NCCCCN [putrescine] |  | + | + | Magnetometer chart response to substrate, PLN (pig liver nuclei): PLN. No response to PUTR until NADPH added.; Magnetometer chart response to substrate, RLM + NADPH (rat liver Microsomes): Increased slope; Magnetometer chart response to substrate, RLM + NADPH (rat liver Microsomes; listed as PU): PU (10) NADPH (10) response seen at end of record; also recorded: Response to PU |
| C[C@]12CC[C@H]3[C@@H](CCC4=CC(=O)CC[C@@]43C)[C@@H]1CC[C@@H]2O [testosterone] |  | + | − | Magnetometer chart response to substrate, CHROM in presence of NADPH (pig liver chromatin; chromatin from pig liver nuclei, NADPH present): CHROM. Response to TEST in presence of NADPH |
